The text below walks through data of patent publication US10174097B2, “Specific A-beta species-binding peptides for the therapy and/or diagnosis of Alzheimer's dementia” (Forschungszentrum Juelich GmbH, priority 2015, dated 2019).

Entries after “also recorded” stand apart in the source; their conditions may differ. Where a SMILES comes first, the peptide text is derived from it. [ ]: non-standard residue; d: D form. dPhe(4-F) = N[C@H](Cc1ccc(F)cc1)C(=O)O

Data set [1] deals with SH-SY5Y cells. Briefly: MTT assay on SH-SY5Y cells without Abeta co-incubation. It counts as cell-based. Particulars: FIG. 4a. The source says: (§1) No noteworthy toxicity of the peptides according to the invention in therapeutically relevant concentrations was established in the MTT assay on SH-SY5Y cells known to a person skilled in the art (FIG. 4). […] Based on current knowledge, Abeta oligomer is the toxic species.
(§2) The significances are based on the respective concentration with D3 (* p≤0.05; ** p≤0.01; *** p≤0.001; n. s. not significant).
(In general: Tetrazolium dyes change colour on reduction, which living cells bring about.)

Data set [2] addresses T1, Abeta oligomers (Homo sapiens, UniProt P05067). The data set is described as follows: QIAD method, elimination of Abeta oligomers (density gradient centrifugation, RP-HPLC). The settings on record: for Elimination of Abeta oligomers: ratio of Abeta to peptide of 8:1, fractions 4-6, FIG. 2; for Elimination of Abeta oligomers compared to D3: ratio of Abeta to peptide of 8:1, FIG. 2. In kind it is biochemical. The method, then:
Using the QIAD method for the quantitative characterization of amyloid peptides and/or proteins in a sample, it was possible to quantify the properties of the substances. Pre-incubated Abeta was co-incubated with the peptides. The different Abeta species were separated by way of density gradient centrifugation and quantified in the individual fractions by way of RP-HPLC Abeta. The elimination of the Abeta oligomers in fractions 4-6 was analyzed.

The test system of data set [3] is SH-SY5Y cells. The data set is described as follows: MTT assay on SH-SY5Y cells with Abeta co-incubation. It counts as cell-based. The settings on record: for Reduction of the toxicity caused by Abeta: co-incubating Abeta with peptide in various concentrations, FIG. 4b; for Reduction of Abeta toxicity compared to D3: respective concentration with D3, FIG. 4b.
Excerpt: as §1, §2

In data set [4] the target is T2, Abeta fibrils (Homo sapiens, UniProt P05067).
T2 construct: Pre-incubated Abeta was co-incubated with the peptides
T2 sequence (P05067 672-713 limits assumed): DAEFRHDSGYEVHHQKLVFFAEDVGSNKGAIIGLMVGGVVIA
The data set is described as follows: ThT assay, formation of ThT positive Abeta fibrils. In kind it is biochemical. The settings on record: for ThT fluorescence during the entire measuring time period: 48 hours, co-incubation with Abeta, FIG. 3.

The target of data set [5] is T3, Abeta monomers (Homo sapiens, UniProt P05067).
T3 construct: incubate with FITC Abeta monomers, oligomers, fibrils and FITC for 1 hour at room temperature
T3 sequence (P05067 672-713 limits assumed): as above
The data set is described as follows: Peptide microarray, binding of FITC Abeta monomers to immobilized peptides. The settings on record: for Binding specificity monomer to fibrils: quotient binding signal to monomers / binding signal to fibrils; for Binding specificity monomer to oligomer: quotient binding signal to monomers / binding signal to oligomers. The method, then:
(§3) The procedure for identifying peptides that bind specifically to amyloid beta monomer or specifically to amyloid beta oligomers and for determining the binding specificity of peptides within the meaning of the present invention can thus be as follows. Peptide microarrays comprising various peptides immobilized on a surface, such as derivatives of D3, are each incubated with different species of Abeta (such as monomers, oligomers and fibrils) labeled with a fluorescent dye. A peptide microarray is incubated with only the fluorescent dye to serve as the control. So as to ensure the reproducibility of the results, the incubation of the peptide microarrays can be carried out at least three times for each species. The binding of the fluorescence-labeled Abeta to the immobilized peptides is detected by way of the fluorescent dye. The more Abeta binds to the peptide, the higher the fluorescence signal is. The measured fluorescence signals of the reproductions are standardized, and the […]. This avoids binding of the fluorescence-labeled Abeta via the dye. The binding signals of an Abeta species to a peptide are then averaged. So as to determine the binding specificity, the quotient of the species to which the peptide is to specifically bind and another species is found.
(§4) Pretreatment of the peptide microarray slides: • briefly dip 3× in ethanol (96%) and then wash with H2O (30 minutes) • briefly dry by way of centrifuging
(§5) Preparation of monomers and oligomers: • size exclusion chromatography according to Johansson et al. 2006 (Johansson, A.-S. et al. Physiochemical characterization of the Alzheimer's disease-related peptides Aβ1-42Arctic and Aβ1-42 wt. FEBS Journal 273, 2618-2630 (2006)). • oligomers were fractionated at 8-9 ml, monomers at 16-17 ml.
(§6) Carrying out the peptide microarray: • incubate with FITC Abeta monomers, oligomers, fibrils and FITC for 1 hour at room temperature • wash: TBS-T briefly 3× (only TBS-T buffer is replaced), 3×10 minutes in a flacon, 3×H2O, 3×10 minutes • dry by way of centrifugation • The binding of the fluorescence-labeled Abeta to the immobilized peptides is detected by way of the fluorescent dye using the microarray reader FLA800 from Fuji Film. The more Abeta binds to the peptide, the higher is the fluorescence signal. • carrier set mode: slides • resolution: 10 μm • scan mode: high sensitivity (slow): scan pixel at 200 mm/s • laser: 473 nm • filter: 530 DF 20 • photomultiplier tube (PMT) HV (%): 100 • images were stored as .tif files
(§7) The software, AIDA Metrix, from Raytest was used to evaluate the fluorescence signals:
(§8) To ensure the reproducibility of the results, the incubation of the peptide microarrays is carried out at least three times for each species.
(§9) The measured fluorescence signals of the reproductions are standardized using a median-based standardization, and the control was subtracted from the signal. This avoided the binding of the fluorescence-labeled Abeta via the dye.
(§10) The binding signals of an Abeta species to a peptide were averaged.
So as to determine the binding specificity, the quotient of the species to which the peptide is to specifically bind and another species is created.
Example: binding specificity of peptide X to Abeta monomers=binding signal of peptides X to monomers/binding signal of peptides X to oligomers.

Data set [6] deals with transgenic AD mice. Particulars: oral administration with drinking water; cited from earlier work.
The target in data set [7] is T1, Abeta oligomers. The data set is described as follows: Peptide microarray, binding of FITC Abeta oligomers to immobilized peptides. The settings on record: 1 hour at room temperature, control subtracted, averaged. The method, then:
as §3, §4, §5, §6, §7, §8, §9, §10

In data set [8] the target is T2, Abeta fibrils. The data set is described as follows: Peptide microarray, binding of FITC Abeta fibrils to immobilized peptides. Particulars: 1 hour at room temperature, control subtracted, averaged. The method, then: as §3, §4
Preparation of fibrils: • incubate Abeta over 3 days, centrifuge, discard supernatant and resuspend in buffer (repeat 3 times)
as §6, §7, §8, §9, §10

T1 sequence (P05067 672-713 limits assumed): as above

Turning to `CC[C@@H](C)[C@@H](NC(=O)[C@@H](CCCNC(=N)N)NC(=O)[C@@H](CCCCN)NC(=O)[C@H](N)CCCNC(=N)N)C(=O)N[C@H](CCCNC(=N)N)C(=O)N[C@H](CC(C)C)C(=O)N[C@@H](C(=O)N[C@H](Cc1ccc(O)cc1)C(=O)N[C@H](Cc1c[nH]cn1)C(=O)N[C@H](Cc1c[nH]c2ccccc12)C(=O)N[C@H](CC(N)=O)C(=O)N[C@H](CCCNC(=N)N)C(N)=O)C(C)C` [ANK4, rkrirlvyhwnr] (H-[dR][dK][dR][dI][dR][dL][dV][dY][dH][dW][dN][dR]-NH2), the “Toxic effect of the peptide alone on the cells” value (“Toxic effect” below) in data set [1] was “do not have a toxic effect”. Further, in data set [2], the “Elimination of Abeta oligomers” value was determined as 59±16%. Moreover, in data set [3], the “Reduction of the toxicity caused by Abeta” value (“Reduction … by Abeta” for short) was “reduced; also recorded: reduction in the Abeta toxicity was achieved” and the “Reduction of Abeta toxicity compared to D3” value is given as “more efficient”. Further, in data set [4], the “ThT fluorescence during the entire measuring time period” value is “slight increase”. Moreover, in data set [5], the “Binding specificity monomer to fibrils” value worked out at 4.3 and the “Binding specificity monomer to oligomer” value was 3.3.
As to `CC(C)C[C@@H](NC(=O)[C@@H](CCCNC(=N)N)NC(=O)[C@H](NC(=O)[C@@H](CCCNC(=N)N)NC(=O)[C@@H](CCCCN)NC(=O)[C@H](N)CCCNC(=N)N)C(C)C)C(=O)N[C@@H](C(=O)N[C@H](Cc1ccc(O)cc1)C(=O)N[C@H](Cc1c[nH]cn1)C(=O)N[C@H](CCCCN)C(=O)N[C@H](CCCCN)C(=O)N[C@H](CCCNC(=N)N)C(N)=O)C(C)C` [ANK5, rkrvrlvyhkkr] (H-[dR][dK][dR][dV][dR][dL][dV][dY][dH][dK][dK][dR]-NH2), the “Toxic effect” value in data set [1] is recorded as “do not have a toxic effect”. In data set [2], the “Elimination of Abeta oligomers compared to D3” value (“Elimination … compared to D3” for short) is given as “significantly more efficiently than D3” and the “Elimination of Abeta oligomers” value was 72±2%. Further, the “Reduction … by Abeta” value in data set [3] is “reduced; also recorded: reduction in the Abeta toxicity was achieved”. In data set [4] (after 48 hours), the ThT fluorescence is on record as 1029 rfu and the “ThT fluorescence as % of the ThT fluorescence of Abeta control” value stood at 53%. Further, in data set [5], the “Binding specificity monomer to fibrils” value worked out at 2.2 and the “Binding specificity monomer to oligomer” value came to 5.9.
With `CC[C@@H](C)[C@@H](NC(=O)[C@@H](CCCNC(=N)N)NC(=O)[C@@H](CCCCN)NC(=O)[C@H](N)CCCNC(=N)N)C(=O)N[C@H](CCCNC(=N)N)C(=O)N[C@H](CC(C)C)C(=O)N[C@@H](C(=O)N[C@@H](C(=O)N[C@H](CCCCN)C(=O)N[C@H](CCCCN)C(=O)N[C@H](CCCCN)C(=O)N[C@H](CCCNC(=N)N)C(N)=O)[C@H](C)O)C(C)C` [ANK6, rkrirlvtkkkr] (H-[dR][dK][dR][dI][dR][dL][dV][dT][dK][dK][dK][dR]-NH2), the “Toxic effect” value in data set [1] is given as “do not have a toxic effect”. In data set [2], the “Elimination … compared to D3” value was “significantly more efficiently than D3” and the “Elimination of Abeta oligomers” value was determined as 81±3%. For the same molecule, in data set [3], the “Reduction … by Abeta” value was “reduced; also recorded: reduction in the Abeta toxicity was achieved” and the “Reduction of Abeta toxicity compared to D3” value is “more efficient”. Further, the “ThT fluorescence during the entire measuring time period” value in data set [4] was “slight increase”. In addition, in data set [5], the “Binding specificity monomer to fibrils” value is 1.9 and the “Binding specificity monomer to oligomer” value was 4.1.
In the case of `CC[C@@H](C)[C@@H](NC(=O)[C@@H](Cc1c[nH]cn1)NC(=O)[C@H](NC(=O)[C@@H](Cc1ccc(F)cc1)NC(=O)[C@@H](CC(C)C)NC(=O)[C@@H](CCCNC(=N)N)NC(=O)[C@H](NC(=O)[C@@H](CCCNC(=N)N)NC(=O)[C@@H](CCCCN)NC(=O)[C@H](N)CCCNC(=N)N)C(C)C)[C@H](C)O)C(=O)N[C@H](CCCCN)C(=O)N[C@H](CCCNC(=N)N)C(N)=O` [ANK7, rkrvrl02thikr] (H-[dR][dK][dR][dV][dR][dL][dPhe(4-F)][dT][dH][dI][dK][dR]-NH2), in data set [1], the “Toxic effect” value is “do not have a toxic effect”. In data set [2], the “Elimination … compared to D3” value is “significantly more efficiently than D3” and the “Elimination of Abeta oligomers” value is reported as 73±1%. In addition, the “Reduction … by Abeta” value in data set [3] is given as “reduced; also recorded: reduction in the Abeta toxicity was achieved”. The “ThT fluorescence during the entire measuring time period” value in data set [4] is “slight increase”. Further, in data set [5], the “Binding specificity monomer to fibrils” value was determined as 6.8 and the “Binding specificity monomer to oligomer” value amounted to 6.4.
For rprtrlhthrnr [D3, reference compound], in data set [6], the “Cognitive abilities of treated transgenic AD mice” value is reported as “significantly improved cognitive abilities” and the “Plaque in treated transgenic AD mice” value is listed as “considerably less plaque”. Further, the “Binding signal to Abeta oligomers” value in data set [7] is reported as 0.6 rfu. Further, the “Elimination of Abeta oligomers” value in data set [2] is recorded as 50±10%. Besides, in data set [8], the “Binding signal to Abeta fibrils” value was 0.8 rfu. In data set [5] (FIG. 1b, quotient of binding signals), the “Binding specificity with respect to Abeta monomer” value is recorded as “less than 1”. Besides, the “Binding signal to Abeta monomers” value in data set [5] (peptide microarray, FITC Abeta, 1 hour at room temperature, control subtracted, averaged) amounted to 0.5 rfu. Besides, in data set [5], the “Binding specificity monomer to fibrils” value was found to be 0.6 and the “Binding specificity monomer to oligomer” value is reported as 0.8.
